# In paper PMC11378297, “Discovery and Profiling of New Multimodal Phenylglycinamide Derivatives as Potent Antiseizure and Antinociceptive Drug Candidates” (ACS Chemical Neuroscience, 2024):
# Experiments:
# [1] = test system: PTZ-induced kindling, mice; assay: PTZ-induced kindling model; assay type: in vivo, mouse
# Experimental: We investigated the impact of lead compound (R)-32 on PTZ-induced kindling in mice to further assess its antiseizure potential (Figure 3). […] The PTZ-induced kindling model is widely recognized as a useful method to induce chronic increase in susceptibility to epileptic seizures.
# Figure 3 Effect of repeated treatment with (R)-32 in PTZ-induced kindling model in mice. […] Data are presented as means of seizure severity (n = 10–15 animals). Statistical significance was evaluated by a mixed effects model for repeated measures followed by Tukey’s post hoc test: **p < 0.01, […] vs control group (GraphPad Prism 8.4.3).
# The procedure was performed as described in detail in our previous studies.[88],[89] […] Seizures were induced three times a week by i.p. administration of PTZ at a subconvulsive dose of 40 mg/kg. […] The seizure severity was scored using the modified Racine’s scale. […] The locomotor activity test, the elevated plus maze test, and the FST were performed 24 h after the last PTZ injection, according to the methods described in detail elsewhere. After completion of behavioral tests, animals were sacrificed. Hippocampi and cortices were dissected from the brains, frozen, and stored at −80 °C until assay. Following each PTZ injection, the mean seizure severity scores were determined for each experimental group. A mixed effects model for repeated measurements was used for analysis, along with Tukey’s post hoc test. The percentage of fully kindled mice was compared using Fisher’s exact probability test.
# [2] = test system: REDs in the medial entorhinal cortex of brain slices from kainate-treated rats; assay: spontaneous recurrent epileptiform discharges (REDs) in brain slices of KA-rats; set-up: species or system rat; details: 40, 80 and 120 μM, 20 min bath exposure
# Experimental: The effects of (R)-32 on spontaneous recurrent epileptiform discharges (REDs) recorded in the medial entorhinal cortex of a brain slices obtained from rats that had previously experienced kainate-induced status epilepticus (KA-rats) were evaluated at 40, 80, and 120 μM. […] Finally, the average duration, frequency, and amplitude of REDs after a 20 min exposure, and normalized to baseline measurements, is illustrated in Figure 4C for 40, 80, and 120 μM (R)-32. […] Accordingly, no EC50 quantifications were performed.
# Figure 4 (R)-32 fails to affect REDs (recurrent epileptiform discharges) at any concentrations tested. (A) Representative traces of REDs recorded before (baseline), in the presence of 80 μM (R)-32, and 20 min after washout. […]
# Evaluation of spontaneous recurrent electrographic discharges (REDs) from the medial entorhinal cortex in acute brain slices obtained from Sprague–Dawley rats that had previously experienced kainate-induced status epilepticus (KA-rats) were performed as previously described (West et al., 2018).[90] […] Extracellular field excitatory postsynaptic potentials (fEPSPs) were then recorded from layer II of the medial entorhinal cortex from 8 brain slices simultaneously. Spontaneous REDs were recorded for a 20 min baseline period. […] Data were acquired using pClamp 10.4.2 and analyzed using the included clampfit 10.4 software. […]
structure (smiles),measurement,setting,value
"CC(=O)N[C@@H](C(=O)N1CCN(c2cccc(OC(F)(F)F)c2)CC1)c1ccccc1 [(R)-32, (R)-N-(2-Oxo-1-phenyl-2-(4-(3-(trifluoromethoxy)phenyl)piperazin-1-yl)ethyl)acetamide]",effect on kindling development,[1]; 20 mg/kg i.p. repeatedly every 24 h,did not significantly affect kindling development
same,effect on kindling development,[1]; 40 mg/kg i.p. repeatedly every 24 h,did not significantly affect kindling development
same,effect on kindling progression,"[1]; 80 mg/kg i.p. repeatedly, p < 0.01 after 19th PTZ injection",slightly suppressed kindling progression
same,average seizure severity score after the first PTZ injection,"[1]; 80 mg/kg, mean ± SD",0.87 ± 0.35
same,average seizure severity score after the last PTZ injection,"[1]; 80 mg/kg, mean ± SD",2.65 ± 1.28
same,"effect on RED parameters (duration, frequency, amplitude)",[2],failed to significantly affect
